The record followed here is ChEMBL document CHEMBL5505980, “Pyrazolamide derivatives inhibit α-Synuclein aggregation, disaggregate preformed fibers, and reduce inclusion formation in neuron cells” (Eur J Med Chem, 2024).

Data set [1] can be described thus: Apparent permeability across apical to basolateral side in MDCKII-MDR1 cells at 10 uM by LC-MS/MS analysis. The data set is classed as ADME, cell-based, Canis lupus familiaris. As to conditions: dog, MDCK-MDR1.
A short description of data set [2]: Cytotoxicity against human H4 cells assessed as cell viability at 30 uM incubated for 24 hrs by CCK-8 assay relative to control. The data set is classed as toxicity, cell-based. As to conditions: read-out: Activity. (In general: Tetrazolium assays rely on reduction of a dye to a coloured formazan, in cell work by metabolically active cells.)
A short description of data set [3]: Apparent permeability across basolateral side to apical in MDCKII-MDR1 cells at 10 uM by LC-MS/MS analysis. To be noted: dog, MDCK-MDR1. The data set is classed as ADME, cell-based, Canis lupus familiaris.
Data set [4] has as its system H4. Put plainly: Cytotoxicity against human H4 cells assessed as cell viability at 1 to 1000 uM incubated for 24 hrs by CCK-8 assay. The data set is classed as toxicity, cell-based. As to conditions: h4, 24 h, dose 1-1000 µM.
The test system of data set [5] is H4. Put plainly: Cytotoxicity against human H4 cells assessed as cell viability at 300 uM incubated for 24 hrs by CCK-8 assay relative to control. The data set is classed as toxicity, cell-based. To be noted: h4, 24 h.
In the next data set the target is Alpha-synuclein (Homo sapiens, UniProt P37840). Put plainly: Inhibition of alpha-synuclein (unknown origin) aggregation inhibition ratio by measuring relative fluorescence intensity measured after 3 days by ThT F1 based assay relative to control.

The term Papp A→B denotes how fast a substance crosses the layer from the apical side. What is called Papp B→A is the apparent permeability from the basolateral to the apical side of a cell layer. As for `Cc1ccc(-c2cc(C(=O)Nc3cc(O)ccc3O)[nH]n2)cc1`, the Papp A→B at 10 µM in data set [1] is 2.26 ×10⁻⁶ cm/s. Further, the viability at 24 h, 30 µM in data set [2] came out at 74%. The Papp B→A at 10 µM in data set [3] was 6.65 ×10⁻⁶ cm/s. Also, the Activity result in the data set with H4 [4] is “Non-Toxic”.
Consider `O=C(Nc1ccc(O)c(O)c1)c1cc(-c2ccc(C(F)(F)F)cc2)n[nH]1`, for which the Papp A→B at 10 µM in data set [1] was found to be 4.2 ×10⁻⁶ cm/s. In addition, the viability at 24 h, 30 µM in data set [2] came out at 95%. Further, the Papp B→A at 10 µM in data set [3] was 1.86 ×10⁻⁶ cm/s. For the same compound, the Activity result in the data set with H4 [4] is “Non-Toxic”.
For `O=C(Nc1cc(O)ccc1O)c1cc(-c2ccc(Br)cc2)n[nH]1`, in data set [1], the Papp A→B at 10 µM was 29.6 ×10⁻⁶ cm/s. Further, the viability at 24 h, 30 µM in data set [2] came to 95%. Further, the Activity entry in the data set with H4 [5] and in the data set with H4 [4] was “Non-Toxic” in each case. The basolateral-to-apical permeability (Papp B→A) at 10 µM in data set [3] turned out to be 12 ×10⁻⁶ cm/s.
In the case of `O=C(Nc1cc(O)ccc1O)c1cc(-c2ccc(C(F)(F)F)cc2)n[nH]1`, the Papp A→B at 10 µM in data set [1] amounted to 49.7 ×10⁻⁶ cm/s. Moreover, the viability at 24 h, 30 µM in data set [2] amounted to 95%. Besides, the Papp B→A at 10 µM in data set [3] stood at 19.3 ×10⁻⁶ cm/s. Moreover, in the data set on H4 [4], the Activity result is “Non-Toxic”.
One may read the IC50 as the concentration that gives 50% inhibition. For `O=C(O[C@@H]1Cc2c(O)cc(O)cc2O[C@@H]1c1cc(O)c(O)c(O)c1)c1cc(O)c(O)c(O)c1` [EPIGALOCATECHIN GALLATE], at Alpha-synuclein, the IC50 turned out to be 2580 nM. The Activity result with H4 [4] is listed as “Non-Toxic”.
